Test results: patent US20240384250A1, “FIBROBLAST GROWTH FACTOR 23 MODULATING COMPOUNDS” (THE UAB RESEARCH FOUNDATION, priority 2021, published 2024)
“Also recorded” adds a separate entry of the source.

Tested on: adult rat ventricular myocytes (ARVMs)
Assay: Calcium transients and cell shortening in adult rat ventricular myocytes
Assay type: cell-based
Procedure: As done before,^69 adult male Wistar rats (150-200 g) were killed and hearts were quickly removed and cannulated via the ascending aorta on a Langendorff system where they were retrograde perfused and digested by type II collagenase. Hearts were perfused with calcium-free Tyrode's solution supplemented with 0.2 mmol/L of ethyleneglycol-bis-((3-aminoethylether)-N,N, N′,N′-tetraacetic acid for 3 minutes. For the digestion, hearts were perfused with Tyrode's solution containing 0.1 mmol/L of CaCl2), 1 mg/ml of type II collagenase (Worthington), and 1 mg/ml of BSA for 3 to 4 minutes at room temperature. Cells were resuspended in Tyrode's solution containing 1 mmol/L of CaCl2). Tyrode's solution contains 130 mM NaCl, 5.4 mM KCl, 0.4 mM NaH2PO4, 0.5 mM MgCl2, 25 mM N-2-hydroxyethylpiperazine-N-2-ethanesulfonic acid, and 22 mM glucose. Adult rat ventricular myocytes (ARVMs) were loaded with the fluorescent Ca^2+ dye Fluo-3 AM (Thermo Fisher Scientific) for cytosolic Ca^2+ measurements. Loaded ARVMs were acutely perfused during 2 minutes with vehicle, FGF23 (10 ng/ml), or a combination of FGF23 and heparin (0.7 USP/ml). Cytosolic Ca^2+ transients were recorded under 1 Hz of field stimulation using 2 parallel platinum electrodes. Images were obtained with confocal microscopy (Zeiss LSM 510-META microscope), using a 40× objective by scanning the cell with an argon laser every 1.54 ms. Fluo-3 AM was excited at 488 nm, and emissions were collected at >505 nm. Cell contraction was stimulated as the difference in cell length between rest and contraction (during electrical stimulation), expressed as a percentage of shortening of the cell length. Image analysis was performed with self-made routines using IDL (Research Systems) and ImageJ (v1.53) software.

Question: For heparin [reference compound], which “FGF23 effect on [Ca2+]i transients in the presence of heparin” value (FGF23 10 ng/ml with heparin 0.7 USP/ml) is on record?
Answer: became statistically significant; also recorded: significantly increased

Question: What about the “FGF23 effect on cell shortening with addition of heparin” value (FGF23 with heparin) of the same substance?
Answer: significantly increased the effect of FGF23

Question: And the “[Ca2+]i transients, heparin by itself” value (heparin 0.7 USP/ml)?
Answer: no significant effects

Question: And the “cell shortening, heparin by itself” value (heparin alone)?
Answer: no significant effects
